The numbers were not newly measured in patent US20200368234A1, “PHOTORECEPTOR GENE MODULATOR PHOTOREGULIN 3 FOR TREATMENT OF RETINAL DISEASE” (University of Washington, priority 2017, published 2020), which cites them from elsewhere.

The structures appear in SMILES notation.

For data set [1], the system named is rod gene expression. Particulars: developing or mature retina treated with PR1; previously reported; cited from earlier work.
In data set [2] the test system is Rho^P23H. Particulars: Rho^P23H model of RP; previously reported; cited from earlier work.
The subject of data set [3] is Pde6b^Rd1. As to conditions: Pde6b^Rd1 model of RP; previously reported; cited from earlier work.

Take `Cc1cc(C)cc(NC(=O)CCc2nc3sc4c(c3c(=O)[nH]2)CCCC4)c1` [PR1]: the “rod and cone gene expression” value in data set [1] was “reduces rod gene expression and increases the expression of some cone genes”. For the same molecule, the “rod degeneration in vitro” value in data set [2] and in data set [3] was “slows rod degeneration in vitro” each time.
